In EP3381907A1, “SYMMETRICAL 2-AMINOPHENYL-BENZAZOLYL-5-ACETATE COMPOUNDS AND THEIR USE AS ANTI-HEPARANASE” (Leadiant Biosciences SA, priority 2017, dated 2018):

Columns and labels:
FGF-2 = assay: Real-Time quantitative PCR of FGF-2 mRNA in HT1080 cells; format: cell-based, human; settings: 24 h
Procedure: (§1) To evaluate the effect of heparanase inhibitors on the tumor transcription of genes encoding for proangiogenic factors, such as FGF1/2, VEGF, MMP-9, HSPE-1, the relative mRNA levels were analyzed by quantitative Real-Time Quantitative PCR. To perform the assay, HT1080 (human fibrosarcoma) cells were cultured in complete medium containing 10%FCS (fetal calf serum). Cells were plated in 24-well plates and treated at fixed concentration (i.e., highest non-toxic concentration) of test compounds. After 24 h, cells were detached, collected and total RNA extracted by RNeasy Mini Kit (QIAGEN). Following reverse transcription step, FGF1/2, VEGF, MMP-9, HSPE-1 mRNA levels, were quantified by qPCR using the advanced Universal SYBR Green Supermix (Bio Rad) and ABI PRISM 7900HT Thermal Cycler System (Perkin Elmer), according to the manufacturer's instructions. Appropriate no-RT and non-template controls were included in each 96-well PCR reaction, and dissociation analysis was performed at the end of each run to confirm the specificity of the reaction. Relative levels of RNA were calculated using the ddCt method. Standard curve and sample data were run in duplicate.
(§2) In the Table 5 a mean value is reported.

FGF-1 = assay: Real-Time quantitative PCR of FGF-1 mRNA in HT1080 cells; format: cell-based, human; settings: 24 h
Procedure: as §1, §2

VEGF = assay: Real-Time quantitative PCR of VEGF mRNA in HT1080 cells; format: cell-based, human; settings: 24 h
Procedure: as §1, §2

heparanase = target: T1, heparanase (Homo sapiens, UniProt Q9Y251); assay: AGA*IA assay: colorimetric fondaparinux cleavage assay for heparanase inhibition (WST-1); format: biochemical; settings: 2.5 nM heparanase, 100 µM fondaparinux, pH 5.0, 3 h at 37°C; class symbols
T1 sequence (Q9Y251 158-543 limits assumed): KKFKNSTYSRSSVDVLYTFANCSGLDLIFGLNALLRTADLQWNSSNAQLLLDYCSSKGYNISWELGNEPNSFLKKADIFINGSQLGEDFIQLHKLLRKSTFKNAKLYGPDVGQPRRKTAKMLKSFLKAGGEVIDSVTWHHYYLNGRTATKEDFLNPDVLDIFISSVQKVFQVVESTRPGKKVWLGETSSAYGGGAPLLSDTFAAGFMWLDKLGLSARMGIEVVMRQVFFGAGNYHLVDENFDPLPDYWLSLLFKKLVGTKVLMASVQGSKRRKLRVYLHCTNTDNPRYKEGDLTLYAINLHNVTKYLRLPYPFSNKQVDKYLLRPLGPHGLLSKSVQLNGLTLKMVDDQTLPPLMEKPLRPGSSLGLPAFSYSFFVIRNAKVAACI
T1 sequence (Q9Y251 36-109 limits assumed): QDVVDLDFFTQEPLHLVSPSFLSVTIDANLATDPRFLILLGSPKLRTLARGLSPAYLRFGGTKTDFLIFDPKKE
Procedure: All compounds were tested in a simple, accurate and robust microplate assay based on the cleavage of the synthetic heparin fragment, the pentasaccharide Fondaparinux (AGA*IA). This assay was originally developed by Hammond and coworkers [Hammond E, Li CP, Ferro V. Development of a colorimetric assay for heparanase activity suitable for kinetic analysis and inhibitor screening. Anal. Biochem. 396(1), 112-116 (2010)], where Fondaparinux corresponds to the methyl glycoside of the antithrombin III (ATIII)-activating pentasaccharide sequence of heparin. Fondaparinux is cleaved by heparanase to generate a reducing disaccharide, which can be quantitatively measured via a colorimetric or a fluorescence assay, the last by the fluorescent sensor polymer-H [Schiemann S, Lühn S, Alban S. Development of both colorimetric and fluorescence heparinase activity assays using fondaparinux as substrate. Anal. Biochem. 427(1), 82-89 (2012)].
The assay measures the appearance of the disaccharide product of heparanase-catalyzed fondaparinux cleavage colorimetrically using the tetrazolium salt WST-1. Assay was essentially performed as described with minor modifications. Briefly, NUNC ELISA 96-well plates were pre-treated with a solution of 4% BSA (bovin serum albumin) in phosphate-buffered saline containing 0.05% Tween 20 (PBST), for 2 h at 37°C, then washed three times with PBST, dried by tapping on paper towel and stored at -20°C. Before use, once again, the plates were washed with PBST.
Assay was carried out with 100 µl/well of assay solution containing 40 mM sodium acetate buffer (pH 5.0), 100 µM fondaparinux, 2.5 nM heparanase and serial dilutions of test compounds (tested in triplicate). Plates were sealed with adhesive tape and incubated, in the dark, for 3 h at 37°C, followed by development with 1.69 mM of the tetrazolium salt WST-1 solution in 0.1 M NaOH, for 1 h at 60°C. Then, the absorbance at 560 nm was measured through a microplate reader (Victor 3, Perkin Elmer).
Finally, the measurements were corrected by subtracting both the reagent background and the inner absorbance value of test compound.

[1] = system: HT1080 (human fibrosarcoma); assay: Cell adhesion assay on matrigel coated wells, HT1080; format: cell-based; settings: HT1080, test compound at 2.5 µM; percent of adhesion with respect to the control (100%)
Procedure: Cell surface, non-integrin molecules such as heparan sulfate proteoglycans (HSPGs) may be involved in the regulation of early adhesive stages of cell-ECM interactions. A cell adhesion assay has been employed to determine if the newly designed heparanase inhibitors were able to interfere with adhesion properties of cancer cells.
HT1080 (human fibrosarcoma) and U87MG (human glioblastoma astrocytoma) cells were treated for 18-20 h with test compounds in complete medium supplemented with 10% FCS. Then cells were collected, washed in complete medium, and added to matrigel coated wells in triplicate, at previously identified optimal seeding density, and incubated at 37 °C in complete medium for times ranging from 15 minutes to 4h, according to the cell line. After incubation, the wells were washed three times with serum-free medium and the remaining firmly attached cells were stained with crystal-violet 0.1%. Optical density was measured at 560 nm by Victor 3 (Perkin-Elmer) plate analyzer. Each experiment was repeated three times.
Table 3. […] In Invasion assay, data were expressed as the percent invasion (range) with respect to cell migration through uncoated insert membrane. In Adhesion assay, data were expressed as the percent of adhesion with respect to the control (100%). • Legend • ++: 50-90% • + : < 50% • - : Not Active

With `O=C(O)Cc1ccc2oc(-c3ccc(NC(=O)Nc4ccc(-c5nc6cc(CC(=O)O)ccc6o5)cc4F)c(F)c3)nc2c1` [Compound 20, 2,2'-(((Carbonylbis(azanediyl))bis(3-fluoro-4,1-phenylene))bis(benzo[d]oxazole-2,5-diyl))diacetic acid] the “Gene Expression (% mRNA vs. control) FGF-2” value (FGF-2; 2.5 uM) was “∼ 88%”, the “Gene Expression (% mRNA vs. control) FGF-1” value (FGF-1; 2.5 uM) was “∼ 85%” and the “Gene Expression (% mRNA vs. control) VEGF” value (VEGF; 2.5 uM) was “∼ 72%”. The IC50 (heparanase) was 50 to 490 nM and the “Adhesion Assay (%) HT1080” value [1] was 83.25%.
For `O=C(O)CNC(=O)Cc1ccc2oc(-c3ccc(NC(=O)Nc4ccc(-c5nc6cc(CC(=O)NCC(=O)O)ccc6o5)cc4F)c(F)c3)nc2c1` [Compound 25, 2,2'-((2,2'-(((Carbonylbis(azanediyl))bis(3-fluoro-4,1-phenylene))bis(benzo[d]oxazole-2,5-diyl))bis(acetyl))bis(azanediyl))diacetic acid], the “Gene Expression (% mRNA vs. control) FGF-2” value (FGF-2; 10.0 uM) was “∼ 68%”, the “Gene Expression (% mRNA vs. control) FGF-1” value (FGF-1; 10.0 uM) was “∼ 52%” and the “Gene Expression (% mRNA vs. control) VEGF” value (VEGF; 10.0 uM) was “∼ 63%”. The IC50 (heparanase) was 50 to 490 nM and the “Adhesion Assay (%) HT1080” value [1] was 81.60%.
